Values after ≈ are worked out from the molar mass of the structure shown.
Assays:
[1] = tested on: HCT15 (colon adenocarcinoma); assay: In vitro cytotoxicity, sulforhodamine B (SRB) method, HCT15; type: cell-based; conditions: Homo sapiens; HCT-15, SRB method; read-out: cytotoxicity (ED50) HCT-15
In short: (§1)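 Cells grown in RPMI 1640 with 10% FCS at 37 °C, 5% CO2 were exposed to compounds at 30, 10, 3, 1 and 0.3 μg/ml final, with DMSO below 0.5%. Cytotoxicity was read by the standard NCI sulforhodamine B protein-staining method.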

A-549 (lung carcinoma) = assay: In vitro cytotoxicity, sulforhodamine B (SRB) method, A-549; type: cell-based; conditions: Homo sapiens, A549; A-549, SRB method; read-out: cytotoxicity (ED50) A-549
In short: as §1

[2] = tested on: PC-3 (prostate adenocarcinoma); assay: In vitro cytotoxicity, sulforhodamine B (SRB) method, PC-3; type: cell-based; conditions: Homo sapiens; PC-3, SRB method; read-out: cytotoxicity (ED50) PC-3
In short: as §1

SNU449Tp cells [3] = assay: Cell growth over time of TM4SF5-expressing cells (FIG. 43, right); type: cell-based, human; conditions: TSAHC at given concentrations
Description: (§2) Arrows indicate the overlapping nuclei of cells undergoing cell division. […] In addition, in order to measure the growth rates of the cells, 5×10^4 cells were plated onto 6-well plates and counted every 12 hrs. The results are expressed as a graph. […] This was observed even at a low cell density. That is, among cells at a low density, TM4SF5-expressing cells proliferated through cell division, during which two nuclei overlapped each other.

SNU449 Cp cells = assay: Cell growth over time of TM4SF5-null cells (FIG. 43, left); type: cell-based, human; conditions: TSAHC at given concentrations
Description: as §2

SNU449Tp cells [4] = assay: BrdU immunofluorescent staining, S-phase progression (FIG. 44); type: cell-based, human; conditions: 20 μM, BrdU for 24 hrs
Description: (§3) When cells were transfected with given specific genes or infected with various viruses, they were used after being cultured for a given period of time. Cells treated with 10 mM lysophosphatidic acid (LPA) were used 1 hour after being attached to cover glasses. Immunofluorescent staining was carried out by preparing a slide for fluorescent analysis through incubation with a primary antibody against a target protein, washing out unbound antibody molecules, incubation with a fluorescein-conjugated secondary antibody and washing out unbound antibody molecules, and actin filament staininh was carried out with rhodamine-conjugated phalloidin. Antibodies used included antibodies against E-cadherin, β-catenin, FLAG, 4′-6-diamidino-2-phenylindole (DAPI), 5-brorno-2′-deoxy-uridine (BrdU), p27^kip1, ZO1 (zonula occludens-1), and the like. Immunofluorescent stained cover glasses were placed on slides and observed under a fluorescence microscope or a confocal laser scanning microscope.

SNU449Tp cells [5] = assay: Immunofluorescent staining for E-cadherin and β-catenin, cell-cell contact (FIG. 45); type: cell-based, human; conditions: 20 μM
Description: as §3

RhoA = assay: In vitro RhoA activity assay (FIG. 48); type: cell-based, human; conditions: TM4SF5-expressing cells
Description: In order to investigate signaling pathways involved in the aforementioned morphological change, TM4SF5-expressing cell lines (SNU449Tp, T3, T7 and T16), established in Example 1, were assessed for expression levels of FAK phosphorylated at Tyr577 (pY^577FAK) and c-Src phosphorylated at Tyr 416 (pY^416cSrc), Rac1 activity and RhoA activity. Whole cell lysates were prepared and subjected to Western blot analysis, which was performed with each antibody against proteins indicated in FIGS. 3 and 5. The activity of RhoA and Rac1 was monitored by pull-down of RhoA and Rac1 from the cell lysates in vitro.

TM4SF5 = molecular target: T1, TM4SF5 (Homo sapiens, UniProt O14894); assay: Western blotting of lysates treated with PNGase F and Endo H (FIG. 50); type: cell-based
T1 construct: expressed in transfected cells; host or cells: SNU449 hepatocarcinoma cells stably expressing TM4SF5 (the embodiment)
T1 sequence (O14894 1-197): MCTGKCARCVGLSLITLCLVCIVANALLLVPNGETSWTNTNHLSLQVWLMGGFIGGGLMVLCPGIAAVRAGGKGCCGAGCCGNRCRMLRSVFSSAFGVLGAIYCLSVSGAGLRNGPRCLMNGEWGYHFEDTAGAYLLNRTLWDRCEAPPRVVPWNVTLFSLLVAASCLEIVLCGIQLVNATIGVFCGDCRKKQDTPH

[6] = tested on: cells not expressing TM4SF5; assay: Growth/proliferation of cells not expressing TM4SF5 (FIG. 51); type: cell-based
SNU449Tp cells [7] = assay: Transwell chamber cell migration (FIG. 65); type: cell-based, human; conditions: 20 μM, 18 hrs
Description: Cell migration was examined using Boyden Transwell chamber 24 well plates (Costar, Cambridge, Mass.). SNU449 Cp and SNU449Tp cells were placed in a chamber on a polycarbonate filter (8 μm porosity) at a density of 5×10^4 cells/well, and cultured in serum-free RPMI (Roswell Park Memorial Institute) media in an incubator at 37° C. under 5% CO2 for 24 hrs. Then, cells on the upper surface of the membrane of the insert chamber were completely removed by wiping with a cotton swab. Cells on the lower side of the membrane were fixed with 70% methanol for about 7 min.
SNU449 Cp cells and SNU449Tp cells were plated onto 6-well plates and cultured for 24 hrs. Cells were then treated with 20 μM of TSAHC to culture for 18 hrs. Cells were transferred into insert wells of the Transwell chamber. After 18 hrs, migrated cells were fixed, stained, and observed under an optical microscope. Cells were counted, and the results were expressed as a graph (FIG. 65).

SNU449Tp cells [8] = assay: Comparison of TSAHC and analogues: cell morphology and multilayer growth by optical microscope (FIG. 69); type: cell-based, human; conditions: 20 μM, 24 hr treatment
Description: TSAHC and its structural analogues were compared for their effects on TM4SF5-mediated events. Dimethyl sulfoxide (DMSO) and chalcone analogues, used in this test, have the following chemical structure.
SNU449 Cp cells and SNU449Tp cells were plated onto 6-well plates and treated with the above compounds at 20 μM for 24 hrs. Cells were monitored for changes in cell morphology using an optical microscope.

**Q.** How did the IC50 [1] turn out when Cc1ccc(S(=O)(=O)Nc2ccc(C(=O)/C=C/c3ccc(O)cc3)cc2)cc1 [Compound 1, 4′-(p-toluenesulfonylamino)-4-hydroxychalcone] was run?
**A.** Its IC50 is 35 µg/mL (≈ 89 µM).

**Q.** What about the IC50 (A-549 (lung carcinoma)) of the same compound?
**A.** The IC50 was 38 µg/mL (≈ 96.6 µM).

**Q.** And the IC50 [2]?
**A.** Its IC50 is 37 µg/mL (≈ 94 µM).

**Q.** And the “growth over time of TM4SF5-expressing cells” value (SNU449Tp cells [3])?
**A.** Its value is “reduced linear growth over time in a manner dependent on TSAHC concentrations”.

**Q.** What about the “effect on TM4SF5-null cells” value (SNU449 Cp cells) of the same compound?
**A.** The value was “did not affect TM4SF5-null cells”.

**Q.** And the S-phase progression (SNU449Tp cells [4])?
**A.** Its S-phase progression is “inhibited S-phase progression”.

**Q.** And the cell-cell contact (SNU449Tp cells [5])?
**A.** Its cell-cell contact is “restored cell-cell contact”.

**Q.** And the RhoA activity (RhoA)?
**A.** Its RhoA activity is “restored the reduced RhoA activity in TM4SF5-expressing cells”.

**Q.** What about the “sensitivity of N-linked glycosylated region of TM4SF5 to PNGase F” value (TM4SF5) of the same compound?
**A.** The value was “increase the sensitivity of an N-linked glycosylated region of TM4SF5 to PNGase F”.

**Q.** What about the “growth or proliferation of cells not expressing TM4SF5” value [6] of the same compound?
**A.** The value was “did not affect cells not expressing TM4SF5”.

**Q.** And the TM4SF5-mediated cell migration (SNU449Tp cells [7])?
**A.** Its TM4SF5-mediated cell migration is “inhibit TM4SF5-mediated cell migration”.

**Q.** What about the TM4SF5-mediated multilayer growth (SNU449Tp cells [8]) of the same compound?
**A.** The TM4SF5-mediated multilayer growth was “effectively stimulate the growth of TM4SF5-expressing cells, not in a multilayer but in a monolayer arrangement”.

**Q.** What about the cell morphology (SNU449Tp cells [8]) of the same compound?
**A.** Its cell morphology is “changed the cell morphology into the same shape as that of SNU449 control cells not expressing TM4SF5”.
